Data taken from patent publication US20120190666A1, “Heteroaryl Compounds as PIKK Inhibitors” (Amgen Inc., priority 2009, published 2012).
pIC50: −log10 of the molar value.

Target: T1, PI3Kα (Homo sapiens, UniProt P42336)
T1 construct: Full length p110 subunits of PI3K α, β and δ, N-terminally labeled with polyHis tag; polyHis (N); made in house; host or cells: Sf9 insect cells (baculovirus)
Assay: In vitro PI3K AlphaScreen assay, PI3Kα
Type: biochemical
Details: PI(4,5)P2 substrate, 20 minutes at room temperature, read-out: P13Kalpha IC50 um
Outline: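 PI3Kα at 1.6 nM (2× stock) with PI(4,5)P2 10 μM and ATP 20 μM (2× stocks) in Tris pH 7, MgCl2, cholate, NaCl, DTT; 20 min at room temperature. Quenched with biotin-IP4/streptavidin-Donor beads, then GST-PIP3-binding protein/anti-GST Acceptor beads, 1.5 h dark; PIP3 formation read as loss of AlphaScreen signal.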

T1 sequence (P42336 whole entry): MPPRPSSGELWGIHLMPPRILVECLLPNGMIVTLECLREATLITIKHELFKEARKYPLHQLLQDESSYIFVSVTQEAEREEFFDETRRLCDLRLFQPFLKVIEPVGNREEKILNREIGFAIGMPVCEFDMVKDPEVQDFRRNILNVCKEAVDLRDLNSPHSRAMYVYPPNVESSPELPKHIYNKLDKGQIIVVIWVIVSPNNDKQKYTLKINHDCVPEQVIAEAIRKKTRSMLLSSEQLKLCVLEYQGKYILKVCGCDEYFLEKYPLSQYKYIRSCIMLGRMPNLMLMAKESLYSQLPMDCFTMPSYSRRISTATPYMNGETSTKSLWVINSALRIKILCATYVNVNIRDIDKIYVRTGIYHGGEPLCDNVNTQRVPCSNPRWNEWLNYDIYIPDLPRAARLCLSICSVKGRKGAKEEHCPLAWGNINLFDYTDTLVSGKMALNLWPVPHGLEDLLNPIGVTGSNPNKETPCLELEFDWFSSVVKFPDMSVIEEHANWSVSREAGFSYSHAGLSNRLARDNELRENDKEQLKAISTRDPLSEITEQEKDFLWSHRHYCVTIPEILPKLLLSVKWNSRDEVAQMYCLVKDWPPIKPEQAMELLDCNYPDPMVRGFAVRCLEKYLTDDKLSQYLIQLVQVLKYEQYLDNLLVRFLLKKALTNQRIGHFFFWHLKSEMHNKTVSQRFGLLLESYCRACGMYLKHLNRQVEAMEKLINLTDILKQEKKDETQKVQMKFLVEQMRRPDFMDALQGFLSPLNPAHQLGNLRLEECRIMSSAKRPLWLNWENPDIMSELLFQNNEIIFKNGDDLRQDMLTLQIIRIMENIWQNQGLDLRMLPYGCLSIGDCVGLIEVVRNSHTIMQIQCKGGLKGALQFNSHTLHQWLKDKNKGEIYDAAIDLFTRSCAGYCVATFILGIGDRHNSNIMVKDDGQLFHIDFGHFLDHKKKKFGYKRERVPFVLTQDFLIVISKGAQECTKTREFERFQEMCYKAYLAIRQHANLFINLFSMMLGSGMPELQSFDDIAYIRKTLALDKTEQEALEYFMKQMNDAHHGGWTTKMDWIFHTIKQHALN
T1 sequence (P27986 whole entry partner): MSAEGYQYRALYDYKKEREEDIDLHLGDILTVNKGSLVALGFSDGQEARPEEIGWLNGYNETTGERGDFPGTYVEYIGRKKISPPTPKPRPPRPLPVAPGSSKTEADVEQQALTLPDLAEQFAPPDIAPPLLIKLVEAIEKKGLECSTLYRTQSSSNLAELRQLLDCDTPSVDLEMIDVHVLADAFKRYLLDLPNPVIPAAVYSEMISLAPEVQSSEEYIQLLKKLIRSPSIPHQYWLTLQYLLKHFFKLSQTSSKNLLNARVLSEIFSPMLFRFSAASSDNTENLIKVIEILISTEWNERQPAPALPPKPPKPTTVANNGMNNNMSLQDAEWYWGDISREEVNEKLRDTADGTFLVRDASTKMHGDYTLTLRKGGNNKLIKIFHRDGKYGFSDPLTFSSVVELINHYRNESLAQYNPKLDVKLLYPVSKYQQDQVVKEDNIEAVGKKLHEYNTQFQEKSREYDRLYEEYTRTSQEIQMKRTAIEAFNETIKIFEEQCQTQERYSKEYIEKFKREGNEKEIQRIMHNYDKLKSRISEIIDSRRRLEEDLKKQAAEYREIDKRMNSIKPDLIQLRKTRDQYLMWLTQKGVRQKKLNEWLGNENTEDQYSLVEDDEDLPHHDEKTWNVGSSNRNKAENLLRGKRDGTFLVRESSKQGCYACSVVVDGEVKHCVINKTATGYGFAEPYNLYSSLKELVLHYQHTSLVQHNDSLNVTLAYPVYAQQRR

Q: With Cc1nc(NC(=O)N(C)C)cc(-c2c(Nc3cc[nH]n3)nc3cccnn23)n1 [Cpd 75, 1,1-dimethyl-3-(2-methyl-6-(2-(1H-pyrazol-3-ylamino)imidazo[1,2-b]pyridazin-3-yl)-4-pyrimidinyl)urea] as the molecule, how does the pIC50 read?
A: 4.38

Q: Cc1nc(NC(=O)CC#N)cc(-c2c(Nc3ccn(C)n3)nc3ccccn23)n1 [Cpd 126, 2-cyano-N-(2-methyl-6-(2-((1-methyl-1H-pyrazol-3-yl)amino)imidazo[1,2-a]pyridin-3-yl)-4-pyrimidinyl)acetamide] was tested. Which pIC50 did it give?
A: 5.27

Q: With Cc1nc(Nc2ccccc2F)cc(-c2c(Nc3cc[nH]n3)nc3cccnn23)n1 [Cpd 31, 3-(6-((2-fluorophenyl)amino)-2-methyl-4-pyrimidinyl)-N-1H-pyrazol-3-ylimidazo[1,2-b]pyridazin-2-amine] as the molecule, how does the pIC50 read?
A: 5.56

Q: How did the pIC50 turn out when CNc1cc(-c2c(Nc3cc[nH]n3)nc3ccc(N4CCOCC4)nn23)nc(C)n1 [Cpd 72, 3-(2-methyl-6-(methylamino)-4-pyrimidinyl)-6-(4-morpholinyl)-N-1H-pyrazol-3-ylimidazo[1,2-b]pyridazin-2-amine] was run?
A: 6.96

Q: Cc1nc(N)nc(-c2c(Nc3cc[nH]n3)nc3ccc(-c4ccoc4)cn23)n1 [Cpd 105, 3-(4-amino-6-methyl-1,3,5-triazin-2-yl)-6-(3-furanyl)-N-1H-pyrazol-3-ylimidazo[1,2-a]pyridin-2-amine] was tested. Which pIC50 did it give?
A: 7.40

Q: How did the pIC50 turn out when Cc1nc(NC(=O)CC(F)(F)F)cc(-c2c(Nc3ccn(C)n3)nc3cccnn23)n1 [Cpd 134, 3,3,3-trifluoro-N-(2-methyl-6-(2-((1-methyl-1H-pyrazol-3-yl)amino)imidazo[1,2-b]pyridazin-3-yl)-4-pyrimidinyl)propanamide] was run?
A: 5.68

Q: Cc1nc(Nc2ccc(N3CCN(C)CC3)nn2)cc(-c2c(Nc3cc[nH]n3)nc3cccnn23)n1 [Cpd 35, 3-(2-methyl-6-((6-(4-methyl-1-piperazinyl)-3-pyridazinyl)amino)-4-pyrimidinyl)-N-1H-pyrazol-3-ylimidazo[1,2-b]pyridazin-2-amine] was tested. Which pIC50 did it give?
A: 6.96

Q: CC(=O)Nc1cc(-c2c(Nc3ccn(C)n3)nc3c(F)cccn23)nc(C)n1 [Cpd 63, N-(6-(8-fluoro-2-((1-methyl-1H-pyrazol-3-yl)amino)imidazo[1,2-a]pyridin-3-yl)-2-methyl-4-pyrimidinyl)acetamide] was tested. Which pIC50 did it give?
A: 5.69

Q: With Cc1nc(N)nc(-c2c(Nc3ccn[nH]3)nc3ccc(CCC(O)CO)cn23)n1 (stereo not drawn) [Cpd 291, 4-(3-(4-amino-6-methyl-1,3,5-triazin-2-yl)-2-(1H-pyrazol-5-ylamino)-midazo[1,2-a]pyridin-6-yl)-1,2-butanediol] as the molecule, how does the pIC50 read?
A: 6.77

Q: With Cc1nc(NC(=O)CN(C)C)cc(-c2c(Nc3ccn(C)n3)nc3cccnn23)n1 [Cpd 92] as the molecule, how does the pIC50 read?
A: 4.70

Q: Cc1nc(N)cc(-c2c(Nc3cc[nH]n3)nc3ccc(OCCN4CCCC4)nn23)n1 [Cpd 73] was tested. Which pIC50 did it give?
A: 6.10

Q: How did the pIC50 turn out when Cc1nc(Nc2cc(OCC(F)(F)F)cnn2)cc(-c2c(Nc3cc[nH]n3)nc3cccnn23)n1 [Cpd 60, 3-(2-methyl-6-((5-(2,2,2-trifluoroethoxy)-3-pyridazinyl)amino)-4-pyrimidinyl)-N-1H-pyrazol-3-ylimidazo[1,2-b]pyridazin-2-amine] was run?
A: 4.41

Q: How did the pIC50 turn out when COCCOc1ccn2c(-c3nc(C)nc(N)n3)c(Nc3cc[nH]n3)nc2c1 [Cpd 185, 3-(4-amino-6-methyl-1,3,5-triazin-2-yl)-7-(2-methoxyethoxy)-N-1H-pyrazol-3-ylimidazo[1,2-a]pyridin-2-amine] was run?
A: 6.15

Q: With Cc1nc(N)cc(-c2c(Nc3ccnn3C(=O)N3CCC3)nc3cccnn23)n1 [Cpd 257, 3-(6-amino-2-methyl-4-pyrimidinyl)-N-(1-(1-azetidinylcarbonyl)-1H-pyrazol-5-yl)imidazo[1,2-b]pyridazin-2-amine] as the molecule, how does the pIC50 read?
A: 4.33

Q: With Cc1nc(N)cc(-c2c(Nc3cc[nH]n3)nc3cccnn23)n1 [Cpd 7, 3-(6-amino-2-methylpyrimidin-4-yl)-N-(1H-pyrazol-3-yl)imidazo[1,2-b]pyridazin-2-amine] as the molecule, how does the pIC50 read?
A: 6.08

Q: How did the pIC50 turn out when Cc1nc(N)cc(-c2c(Nc3ccc4cc[nH]c4n3)nc3ccccn23)n1 [Cpd 41, 3-(6-amino-2-methyl-4-pyrimidinyl)-N-1H-pyrrolo[2,3-b]pyridin-6-ylimidazo[1,2-a]pyridin-2-amine] was run?
A: 4.36

Q: Cc1nc(N)nc(-c2c(Nc3cc[nH]n3)nc3ccc(-c4ccc(C(=O)O)cc4C)cn23)n1 [Cpd 177, 4-(3-(4-amino-6-methyl-1,3,5-triazin-2-yl)-2-(1H-pyrazol-3-ylamino)imidazo[1,2-a]pyridin-6-yl)-3-methylbenzoic acid] was tested. Which pIC50 did it give?
A: 7.10

Q: COCCOc1ccc2nc(Nc3cc[nH]n3)c(-c3cc(N)nc(C)n3)n2n1 [Cpd 69, 3-(6-amino-2-methyl-4-pyrimidinyl)-6-(2-methoxyethoxy)-N-1H-pyrazol-3-ylimidazo[1,2-b]pyridazin-2-amine] was tested. Which pIC50 did it give?
A: 7.05

Q: With Cc1nc(-c2c(Nc3cccc(O)c3)nc3ccccn23)c2nc[nH]c2n1 [Cpd 2] as the molecule, how does the pIC50 read?
A: 7.70

Q: With Cc1nc(N)cc(-c2c(Nc3ccn(C(=O)Nc4ccccc4C(F)(F)F)n3)nc3cccnn23)n1 [Cpd 239, 3-((3-(6-amino-2-methyl-4-pyrimidinyl)imidazo[1,2-b]pyridazin-2-yl)amino)-N-(2-(trifluoromethyl)phenyl)-1H-pyrazole-1-carboxamide] as the molecule, how does the pIC50 read?
A: 5.52

Q: Cc1nc(Nc2ccc(N3CCOC(C)C3)nn2)cc(-c2c(Nc3cc[nH]n3)nc3cccnn23)n1 (stereo not drawn) [Cpd 140, 3-(2-methyl-6-((6-(2-methyl-4-morpholinyl)-3-pyridazinyl)amino)-4-pyrimidinyl)-N-1H-pyrazol-3-ylimidazo[1,2-b]pyridazin-2-amine] was tested. Which pIC50 did it give?
A: 7.22

Q: CC(=O)Nc1cccc(-c2ccc3nc(Nc4cc[nH]n4)c(-c4nc(C)nc(N)n4)n3c2)c1 [Cpd 114, N-(3-(3-(4-amino-6-methyl-1,3,5-triazin-2-yl)-2-(1H-pyrazol-3-ylamino)imidazo[1,2-a]pyridin-6-yl)phenyl)acetamide] was tested. Which pIC50 did it give?
A: 7.00

Q: With COc1ccc(Nc2cc(C)nn2-c2cc(N)nc(C)n2)cn1 [Cpd 24, 6-(5-(6-methoxypyridin-3-ylamino)-3-methyl-1H-pyrazol-1-yl)-2-methylpyrimidin-4-amine] as the molecule, how does the pIC50 read?
A: 6.10

Q: Cc1cc(Nc2cc[nH]n2)n(-c2cc(N)nc(C)n2)n1 [Cpd 18, 6-(5-(1H-pyrazol-3-ylamino)-3-methyl-1H-pyrazol-1-yl)-2-methylpyrimidin-4-amine] was tested. Which pIC50 did it give?
A: 5.49

Q: Cc1nc(N)cc(-c2c(Nc3cccc(N4CCN(C)CC4)c3)nc3cccnn23)n1 [Cpd 151, 3-(6-amino-2-methyl-4-pyrimidinyl)-N-(3-(4-methyl-1-piperazinyl)-phenyl)imidazo[1,2-b]pyridazin-2-amine] was tested. Which pIC50 did it give?
A: 5.02

Q: With COc1ccc(Nc2cc(-c3c(Nc4cc[nH]n4)nc4cccnn34)nc(C)n2)cc1 [Cpd 33] as the molecule, how does the pIC50 read?
A: 6.18

Q: How did the pIC50 turn out when CC(=O)n1ccc(Nc2nc3cccnn3c2-c2cc(N)nc(C)n2)n1 [Cpd 67, N-(1-acetyl-1H-pyrazol-3-yl)-3-(6-amino-2-methyl-4-pyrimidinyl)imidazo[1,2-b]pyridazin-2-amine] was run?
A: 6.12

Q: Cc1nc(N)nc(-c2c(Nc3ccn(C)n3)nc3ccc(-c4ccc(S(C)(=O)=O)cc4)cn23)n1 [Cpd 354] was tested. Which pIC50 did it give?
A: 6.11

Q: Cc1nc(N)cc(-n2nc(C(=O)Nc3cccnc3)cc2Nc2ccn[nH]2)n1 [Cpd 11, 5-(1H-pyrazol-5-ylamino)-1-(6-amino-2-methylpyrimidin-4-yl)-N-(pyridin-3-yl)-1H-pyrazole-3-carboxamide] was tested. Which pIC50 did it give?
A: 6.18

Q: With Cc1nc(N)cc(-n2nc(C(=O)N3CCOCC3)cc2Nc2ccn[nH]2)n1 [Cpd 13, (5-(1H-pyrazol-5-ylamino)-1-(6-amino-2-methylpyrimidin-4-yl)-1H-pyrazol-3-yl)(morpholino)methanone] as the molecule, how does the pIC50 read?
A: 5.95

Q: Cc1nc(NC(=O)N2CCN(C)CC2)cc(-c2c(Nc3cc[nH]n3)nc3cccnn23)n1 [Cpd 77, 4-methyl-N-(2-methyl-6-(2-(1H-pyrazol-3-ylamino)imidazo[1,2-b]pyridazin-3-yl)-4-pyrimidinyl)-1-piperazinecarboxamide] was tested. Which pIC50 did it give?
A: 4.82

Q: How did the pIC50 turn out when COc1ccc(-c2ccc3nc(Nc4ccn[nH]4)c(-c4nc(C)nc(N)n4)n3c2)cc1CO [Cpd 286] was run?
A: 6.89

Q: Cc1nc(Nc2ccc(N3CCOCC3)nn2)cc(-c2c(Nc3cc[nH]n3)nc3ccccn23)n1 [Cpd 49, 3-(2-methyl-6-((6-(4-morpholinyl)-3-pyridazinyl)amino)-4-pyrimidinyl)-N-1H-pyrazol-3-ylimidazo[1,2-a]pyridin-2-amine] was tested. Which pIC50 did it give?
A: 6.89

Q: CNC(=O)c1cc(Nc2ccn[nH]2)n(-c2cc(N)nc(C)n2)n1 [Cpd 14, 5-(1H-pyrazol-5-ylamino)-1-(6-amino-2-methylpyrimidin-4-yl)-N-methyl-1H-pyrazole-3-carboxamide] was tested. Which pIC50 did it give?
A: 5.63

Q: With CNS(=O)(=O)c1ccc(-c2ccc3nc(Nc4cc[nH]n4)c(-c4nc(C)nc(N)n4)n3c2)cc1 [Cpd 351, 4-(3-(4-amino-6-methyl-1,3,5-triazin-2-yl)-2-(1H-pyrazol-3-ylamino)imidazo[1,2-a]pyridin-6-yl)-N-methylbenzenesulfonamide] as the molecule, how does the pIC50 read?
A: 6.32

Q: How did the pIC50 turn out when Cc1nc(N)nc(-c2c(Nc3cnn(C(=O)Oc4ccccc4)c3)nc3ccccn23)n1 [Cpd 209, phenyl 4-((3-(4-amino-6-methyl-1,3,5-triazin-2-yl)imidazo[1,2-a]pyridin-2-yl)amino)-1H-pyrazole-1-carboxylate] was run?
A: 6.08
